# Measurements taken from US7326686B2, “Compounds and methods for regulating cell adhesion” (Adherex Inc., priority 1997, dated 2008).
# Where no end group is shown, it is not given here.
# Assays:
# [1] = test system: Schwann cell migration on astrocytes; assay: Micro-inverted-coverslip migration assay on astrocyte monolayers; assay type: cell-based, rat
# Method: Schwann cell migration may generally be evaluated using a micro-inverted-coverslip assay. In this assay, a dense Schwann cell culture is established on coverslip fragments and Schwann cell migration away from the fragment edge is measured. Briefly, Schwann cells fluorescently labeled with Di-I may be plated on polylysine- and laminin-coated fragments of a glass coverslip and allowed to bind to the surface for 16-18 hours. Cells may then be washed (e.g., in Hanks medium) to remove non-attached cells, and then inverted, with cells facing downward onto an astrocyte-coated surface. Cultures are then incubated further for 2 days in the presence or absence of modulating agent (e.g., LRAHAVDING (SEQ ID NO: 21) at a concentration of 1 mg/mL) and fixed. The maximum migration distance from the edge of the coverslip fragment may then be measured. At a level of 1 mg/mL, modulating agent results in an increase or decrease in the maximum migration distance of at least 50%. This assay evaluates the effect of a modulating agent on N-cadherin mediated cell adhesion.
# In order to assess the rates of Schwann cell migration on different surfaces, the micro-inverted-coverslip migration assay was employed. This is a variation of the technique first described by Fok-Seang et al., Dev. Biol. 171:1-15, 1995. Schwann cells fluorescently labeled with Di-I (25 μg/ml) were evenly plated onto polylysine and laminin coated fragments of glass coverslip (1×2 mm). After 16-18 hours, the pieces of glass coated with Di-I labeled Schwann cells were dipped into Hanks three times to remove any loosely attached cells and then inverted with cells facing downwards onto laminin-coated tissue culture surfaces or onto cell monolayers. These cultures were then incubated for a further two days and fixed for 20 minutes with 4% paraformaldehyde. The maximum migration distance was measured, and the number of cells in bands of 0.1 mm progressing outwards from the edge of the coverslip were counted.
# In this assay, a dense Schwann cell culture is established on coverslip fragments and their migration away from its edge measured. The assay therefore measures the ability of Schwann cells to migrate on a surface, and their ability to migrate away from a confluent Schwann cell monolayer. The migration front of the foremost cells was measured, and the number of cells against distance of migration plotted. Schwann cell-laden fragments were placed on laminin to give a baseline migration rate on a favorable defined surface, and laminin controls were done for comparison on each assay.
# [2] = test system: Schwann cell-astrocyte adhesion; assay: Schwann cell-astrocyte adhesion assay (Dil-labelled Schwann cells on astrocyte monolayer, shaking platform 30 min); assay type: cell-based, rat
# Method: The effect of a modulating agent on Schwann cell adhesion to astrocytes may generally be evaluated using a cell adhesion assay. Briefly, Schwann cells fluorescently labeled with Di-I may be plated onto an astrocytic surface (e.g., a glass coverslip coated with a monolayer of astrocytes) and incubated on a shaking platform (e.g., 25 rpm for 30 minutes) in the presence and absence of modulating agent (e.g., LRAHAVDING (SEQ ID NO: 21) at a concentration of 1 mg/mL). Cells may then be washed (e.g., in Hanks medium) to remove non-attached cells. The attached cells may then be fixed and counted (e.g., using a fluorescent microscope). In general, 1 mg/mL of a modulating agent results in an increase or decrease in cell adhesion of at least 50%. This assay evaluates the effect of a modulating agent on N-cadherin mediated cell adhesion.
# In order to test whether the migratory behavior of Schwann cells on different cell types was a function of adhesivity to the substratum, Dil-labeled Schwann cells were plated onto either astrocytic, fibroblasts, Schwann cell or laminin surfaces. 20,000 Dil-labeled Schwann cells were placed in a 15 mm diameter well in 0.5 ml of medium over a 13 mm glass coverslip coated with laminin, or a complete monolayer of astrocytes, fibroblasts or Schwann cells and then placed onto a shaking platform (25 rpm) for 30 minutes in an incubator. The coverslips were washed three times in Hanks after 30 minutes to remove any non-attached cells and the remainder were fixed for 20 minutes in 4% paraformaldehyde. The number of Dil-labeled Schwann cells that were attached to the coverslip were counted using a Leitz Diaplan fluorescent microscope under rhodamine optics.
# In order to reduce extracellular calcium, DMEM was replaced by S-MEM (Joklik's modification; Gibco) with 0.2 mM calcium chloride added or the calcium buffer EGTA (Sigma) was employed. Adhesion assays in the absence of external calcium were performed using Schwann cells and astrocytes. Either a low calcium solution (S-MEM in place of DMEM with 0.2 mM calcium chloride) or a calcium buffer (EGTA in a normal DMEM medium) was used in these assays. […] EGTA concentrations less than 1.3 mM had little effect upon Schwann cell migration whereas those above 1.8 mM caused disruption of the astrocytic monolayer (data not shown). Adhesion of Schwann cells to astrocytes in the presence of the standard DMEM based medium was taken as the control and assigned the normalized value of 1.0±0.03. Low calcium solutions reduced intercellular adhesion to 0.47±0.09 and the addition of 1.6 mM EGTA to DMEM reduced adhesion to 0.39±0.05 (FIG. 10A). […]
# [3] = peptide 1 mg/ml, adhesion in the absence of peptide = 1.0±0.05, mean±S.E.M.
compound,measurement,setting,value
O=C(O)CN(CCOCCOCCN(CC(=O)O)CC(=O)O)CC(=O)O [EGTA],extent of Schwann cell migration upon astrocyte monolayers,"[1]; EGTA 1.6 mM, control migration 0.25±0.03",0.86 mm
same,concentrations causing disruption of the astrocytic monolayer,[1]; data not shown,above 1.8 mM
same,concentrations with little effect upon Schwann cell migration,[1]; data not shown,less than 1.3 mM
same,optimal concentration for Schwann cell migration,[1]; various concentrations of EGTA tested (data not shown),1.6 mM
same,"Schwann cell-astrocyte adhesion, normalized","[2]; 1.6 mM EGTA added to DMEM, standard DMEM control = 1.0±0.03",0.39±0.05
LRAHAVDING-NH2,"Schwann cell-astrocyte adhesion, normalized",[2]; [3],0.38±0.07
LRAHGVDING-NH2,"Schwann cell-astrocyte adhesion, normalized",[2]; [3],0.78±0.10
MRAHAVDING-NH2,"Schwann cell-astrocyte adhesion, normalized",[2]; [3],0.39±0.04
